The source of these data is ChEMBL document CHEMBL1147610, “Orally active PDE4 inhibitors with therapeutic potential” (Bioorg Med Chem Lett, 2004).

For assay [1], the target named is T1, Phosphodiesterase 4 (Homo sapiens, UniProt P27815+Q08499+Q07343+Q08493). Kind of assay: Inhibition of PDE4 from U937 monocytic cells. It is filed as cell-based. The note with it: u-937.
Assay [2] concerns Rattus norvegicus. Kind of assay: Inhibition of LPS-induced TNF-alpha production in rats 0.5 hr after oral dose. It is filed as functional. The note with it: for ED50: read-out: ID50 (the source's name).
Assay [3] concerns Cavia porcellus. The assay is described as follows: Inhibition of SRS-A-mediated bronchoconstriction and airway microvascular leakage in sensitized guinea pigs […] 1 hr prio to challenge. It is filed as functional. To be noted: Lung, route oral, read-out: ID50 (the source's name).
For assay [4], the species on record is Homo sapiens. Kind of assay: Inhibition of LPS induced TNF-alpha production in human whole blood. To be noted: read-out: ID50 (the source's name). Type of assay: functional.
The species named for assay [5] is Rattus norvegicus. The assay is described as follows: (§1) Inhibition of gastric emptying in rats. Type of assay: functional, Stomach.
For assay [6], the species on record is Rattus norvegicus. Described as §1. To be noted: Stomach, read-out: ID50 (the source's name). It is filed as functional.
Assay [7] has as its target T1, Phosphodiesterase 4. The assay is described as follows: Inhibition of PDE4 (Phosphodiesterase 4) from U937 cells. It is filed as cell-based. To be noted: U-937, concentration not given here.

In the case of `COc1ccc([C@]2(C#N)C[C@H]3C[C@@H](C(=O)O)C[C@H]3C2)cc1OC1Cc2ccccc2C1`, the IC50 in assay [1] is 1.3 nM. For the same molecule, the ED50 in assay [2] came to 1.7 mg/kg.
For orientation: Inhibition means how much of the control response was suppressed. Read a low Inhibition as a response near the control. `COc1ccc([C@]2(C#N)C[C@H]3C[C@@H](C(=O)O)C[C@H]3C2)cc1OC(C)C`: in assay [1], the IC50 is reported as 62 nM. The Inhibition in assay [2] was determined as 57%.
Consider `COc1ccc([C@@]2(C#N)C[C@H]3C[C@@H](C(=O)O)C[C@H]3C2)cc1OC1CCCC1`, for which, in assay [1], the IC50 is recorded as above 300 nM.
Turning to `COc1ccc([C@]2(C#N)C[C@H]3C[C@@H](C(=O)NO)C[C@H]3C2)cc1OCC1CC1`, the IC50 in assay [1] worked out at 29 nM. For the same molecule, the ED50 in assay [2] was determined as 3 mg/kg.
Take `COc1ccc([C@]2(C#N)C[C@H]3C[C@@H](C(=O)O)C[C@H]3C2)cc1OC1CCCC1`: the figures for the ED50 in assay [3] and in assay [2] were 9.6 mg/kg and 0.4 mg/kg, respectively. Also, the IC50 amounted to 21000 nM in assay [4] and 9 nM in assay [1]. Further, the Inhibition in assay [5] was 73%.
In the case of `COc1ccc([C@]2(C#N)C[C@H]3C[C@@H](C(=O)O)C[C@H]3C2)cc1OC`, the IC50 in assay [1] is given as 160 nM.
In assay [1], `COc1ccc([C@]2(C#N)C[C@H]3C[C@@H](C(=O)NO)C[C@H]3C2)cc1OC` showed an IC50 of 62 nM. Besides, the Inhibition in assay [2] stood at 55%.
For the molecule `COc1ccc([C@]2(C#N)CC[C@@H](C(=O)O)CC2)cc1OC1CCCC1` [CILOMILAST], the ED50 in assay [3] was found to be 4.5 mg/kg; in assay [2], 1.7 mg/kg; in assay [6], 5.7 mg/kg. In addition, in assay [4], the IC50 came to 18000 nM.
As to `COc1ccc([C@]2(C#N)C[C@H]3C[C@@H](C(=O)NO)C[C@H]3C2)cc1OC1CCCC1`, the IC50 in assay [1] came out at 9.7 nM. The molecule further showed an Inhibition in assay [2] of 52%.
The corresponding values for `COc1ccc([C@]2(C#N)C[C@H]3C[C@@H](C(=O)NO)C[C@H]3C2)cc1OC(C)C` are 12 nM and 47%.
As a reminder, the inhibition is the share of the control response that was lost under treatment. With `CCOc1cc([C@]2(C#N)C[C@H]3C[C@@H](C(=O)NO)C[C@H]3C2)ccc1OC`, the ED50 in assay [3] was determined as 5 mg/kg; in assay [2] it was 1.8 mg/kg; in assay [6] it was 12 mg/kg. For the same molecule, the IC50 in assay [4] came out at 800 nM. Also, the inhibition in assay [7] turned out to be 56%.
`COc1ccc([C@]2(C#N)C[C@H]3C[C@@H](C(=O)NO)C[C@H]3C2)cc1OC1Cc2ccccc2C1` displayed an IC50 in assay [1] of 0.85 nM. Further, the Inhibition in assay [2] is 17%.
With `CCOc1cc([C@]2(C#N)C[C@H]3C[C@@H](C(=O)O)C[C@H]3C2)ccc1OC`, the IC50 in assay [4] came out at 5800 nM; in assay [1], 26 nM. Also, the ED50 was found to be 2.9 mg/kg in assay [2] and 17 mg/kg in assay [6].
`COc1ccc([C@]2(C#N)C[C@H]3C[C@H](C(=O)O)C[C@H]3C2)cc1OC1CCCC1` yielded an IC50 in assay [1] of 150 nM. Moreover, in assay [2], the ED50 stood at 3.8 mg/kg.
`COc1ccc([C@@]2(C#N)C[C@H]3C[C@H](C(=O)O)C[C@H]3C2)cc1OC1CCCC1` returned an IC50 in assay [1] above 300 nM.
On to `COc1ccc([C@]2(C#N)C[C@H]3C[C@@H](C(=O)O)C[C@H]3C2)cc1OCC1CC1`, for which the IC50 in assay [1] is given as 100 nM.
